According to paper PMC12188386, “Selective CBP/EP300 Bromodomain Inhibitors: Novel Epigenetic Tools to Counter TNF-α-Driven Inflammation” (JACS Au, 2025):

Experiments:
[1] = system: TNF-α-induced IL-8 secretion from THP-1 cells; experiment: cytokine protein measurement (LEGENDPlex); format: cell-based, human; settings: 10 ng/mL TNF-α, 1 μM compound
Protocol: For cytokine expression determination, 5x10^5 THP-1 cells were plated on 12 well plates the day prior to treatment with 10 ng/mL recombinant human TNF -α (aa 77-233) protein (R&D systems, 10291 -TA) and compounds at a final concentration of 0.1 % DMSO. In all cases, total […]
Cytokine protein measurements
THP-1 cells were plated and treated as for the quantitative RT -PCR, then the cell culture medium was harvested by pelleting the cells (300g, 3min) and taking the supernatant .
Cytokine protein concentrations were determined using the LEGENDPlexTM Human Inflammation Panel 1 (BioLegend) assay with 25 µL of culture medium following the manufacturer’s instructi ns. amp es were ana zed f w c t metr n an rtessa Biosciences), and data was analyzed using LEGENDPlex software (BioLegend).

[2] = system: immune cell recruitment to the popliteal lymph node; experiment: TNF-α induced inflammation model, flow cytometry of pLN; format: in vivo, mouse; settings: mice, flow cytometry 5 h post-injection of rmTNF-α, vs control group
BT-549 = experiment: NCI-60 one-dose screen; format: cell-based, human; settings: 10 µM, 48 h, Breast Cancer
Protocol: (§1) Adapted from NCI-60 Screening Methodology, one-dose screen:20 Briefly, human tumor cell lines, grown in RPMI 1640 containing 5% FBS and 2 mM L-glutamine, were plated in 96 well plates at densities ranging from 5,000 to 40,000 cells/well 24 h prior to addition of test compounds (here 10 μM 2). 400x solutions of test compounds were prepared in DMSO, then diluted to 2x in medium supplemented with 50 μg/mL gentamicin. 100 μl of this 2x stock was added to cells previously plated in 100 μl medium, resulting in the desired final compound concentration. Cells were fixed in situ with cold TCA: untreated cells at the time of compound addition (Tz) and treated cells 48 h after addition of compound (Ti). Cells were washed, then su f rh damine s uti n μ at . w/v in acetic acid was added to each well and incubated for 10 minutes at room temperature. After washing again, the plates were air dried and bound stain solubilized with 10 mM Trizma base before absorbance was […]
(§2) Percentage growth (%Growth) was calculated as follows:
(§3) when Ti ≥ Tz, %Growth = Ti − Tz x 100 where Ti = absorbance from compound treated cells, Tz = absorbance from untreated cells at time zero, and C = absorbance from control (DMSO) treated cells. […]

COLO 205 = experiment: NCI-60 one-dose screen; format: cell-based, human; settings: 10 µM, 48 h, Colon Cancer
Protocol: as §1, §2, §3

KM12 = experiment: NCI-60 one-dose screen; format: cell-based, human; settings: 10 µM, 48 h, Colon Cancer
Protocol: as §1, §2, §3

MDA-MB-231/ATCC = experiment: NCI-60 one-dose screen; format: cell-based, human; settings: 10 µM, 48 h, Breast Cancer
Protocol: as §1, §2, §3

NCI-H522 = experiment: NCI-60 one-dose screen; format: cell-based, human; settings: 10 µM, 48 h, Non-Small Cell Lung Cancer
Protocol: as §1, §2, §3

OVCAR-8 = experiment: NCI-60 one-dose screen; format: cell-based, human; settings: 10 µM, 48 h, Ovarian Cancer
Protocol: as §1, §2, §3

PC-3 = experiment: NCI-60 one-dose screen; format: cell-based, human; settings: 10 µM, 48 h, Prostate Cancer
Protocol: as §1, §2, §3

SK-OV-3 = experiment: NCI-60 one-dose screen; format: cell-based, human; settings: 10 µM, 48 h, Ovarian Cancer
Protocol: as §1, §2, §3

T-47D = experiment: NCI-60 one-dose screen; format: cell-based, human; settings: 10 µM, 48 h, Breast Cancer
Protocol: as §1, §2, §3

U251 = experiment: NCI-60 one-dose screen; format: cell-based, human; settings: 10 µM, 48 h, CNS Cancer
Protocol: as §1, §2, §3

UACC-257 = experiment: NCI-60 one-dose screen; format: cell-based, human; settings: 10 µM, 48 h, Melanoma
Protocol: as §1, §2, §3

HL-60(TB) = experiment: NCI-60 one-dose screen; format: cell-based, human; settings: 10 µM, 48 h, Leukemia
Protocol: compounds with known characteristics were included as controls. Quantification of test and control compounds was performed by LC-MS/MS using an 8-point calibration curve under Cyprotex standard analytical conditions. The initial concentration (C0) at time zero was determined from the dosing solution, and recovery was calculated based on concentrations […]
The apparent permeability coefficient (Papp) is calculated from the equation (where dQ/dt is the drug permeation rate across the cells, C0 is the concentration in the donor compartment at time zero, and A is the area of the cell monolayer):
Efflux ratio (ER) is calculated from mean A-B and B-A data: […]
Adapted from NCI-60 Screening Methodology, one-dose screen:20 Briefly, human tumor cell lines, grown in RPMI 1640 containing 5% FBS and 2 mM L-glutamine, were plated in 96 well plates at densities ranging from 5,000 to 40,000 cells/well 24 h prior to addition of test compounds (here 10 μM 2). […] After washing again, the plates were air dried and bound stain solubilized with 10 mM Trizma base before absorbance was […]
as §2, §3

Cc1cc2c(NC(=O)c3cc(NC(=O)c4ccco4)cc(-c4ccn(C)n4)c3)cccc2nn1 [Compound 2]
TNF-α-induced IL-8 protein secretion [1]: significantly reducing its TNF-α-induced secretion
recruitment of lymphocytes (T and B cells), dendritic cells and neutrophils to the pLN [2]: significantly inhibited the recruitment of lymphocytes
%Growth (BT-549): 33%
%Growth (COLO 205): 32%
%Growth (KM12): 28%
%Growth (MDA-MB-231/ATCC): 57%
%Growth (NCI-H522): 3%
%Growth (OVCAR-8): 67%
%Growth (PC-3): 54%
%Growth (SK-OV-3): 86%
%Growth (T-47D): 44%
%Growth (U251): 61%
%Growth (UACC-257): 66%
%Growth (HL-60(TB)): 25%
